# Assay results taken from patent US20080214845A1, “ANTIBACTERIAL 6'-MODIFIED 4,5-SUBSTITUTED AMINOGLYCOSIDE ANALOGS” (priority 2005, published 2008).
# How the values were obtained:
# [1] = test system: Staphylococcus aureus (Smith strain ATCC 13709); test: Staphylococcus aureus mouse protection assay; type: in vivo; conditions: Staph conc. 10^6 IP in 10% mucin, treatments at 1 hour and 3 hour post infection
# Procedure: Two of the novel aminoglycoside compounds of the invention were examined for their anitbacterial activity against staphylococcus aureus. The mice were infected IP with 0.5 ml […] staphylococcus aureus in 10% mucin. There were 10 mice in each treated group with treatments at 1 hour and 3 hour post infection. The Ibis compounds (IBIS00561085 R4═R5═CH3 and IBIS00561141 R4═H, R5═(CH2)2C6H5) were used at 75 mg/kg, 37.5 mg/kg, 18.8 mg/kg, 9.4 mg/kg, 4.7 mg/kg, 2.3 mg/kg, 1.17 mg/kg and 0.5 mg/kg. Amakacin, Paromomycin and Neomycin were used as the positive controls at concentration of 2 mg/kg, 1 mg/kg and 0.5 mg/kg.
# 18S = 18S Kd by FTICR mass spectrometry; type: binding
# Procedure: (§1) Was performed according to the published report; […]-Lowery, […].; Mohan, […]. et al. Characterization of Low Affinity Complexes Between RNA and Small Molecules Using Electrospray Ionization Mass Spectrometry. J. Am. Chem. […] Screening is performed by measuring the formation of non-covalent complexes between a single ligand or ligand mixture and the appropriate RNA target, along with suitable control structured RNA target(s) simultaneously using a 9.4 T FT-ICR mass spectrometer as detector. Full experimental details of the assay have been described in related literature ([…]-Lowery, et al. in TrAC, Trends Anal. […] The abundances were integrated from the respective ions for free RNA and the ligand-RNA complex. […] The peak ratios are measured at each concentration, then a plot of complex/free RNA versus concentration of ligand added is fitted to a second (or higher) order binding polynomial to determine the KD.
# [2] = test system: E. coli S30 bacterial extract (pBest Luc luciferase transcription/translation); test: Coupled bacterial transcription/translation assay (T/T); type: biochemical; conditions: luciferase reporter, 35 minutes at 37° C., read-out: Trans/Trans IC50
# Procedure: The DNA template, pBest Luc™ (Promega), is a plasmid containing a reporter gene for firefly luciferase fused to a strong tac promoter and ribosome binding site. Messenger RNA from 1 μg pBestLuc was transcribed and translated in E. coli S30 bacterial extract in the presence or absence of test compound. Compounds were tested in a black 96 well microtiter plate with an assay volume of […]. Each test well contained: 5 μL test compound, 13 μL S30 premix (Promega), 4 μL 10× complete amino acid mix (1 mM each), 5 μL E. coli S30 extract and 8 μL of 0.125 μg/μL pBest Luc™. The transcription/translation reaction was incubated for 35 minutes at 37° C. followed by detection of functional luciferase with the addition of 30 μL LucLite™ (Packard). Light output was quantitated on a Packard TopCount.
# S. Aureus = test: Minimum inhibitory concentration (MIC), S. aureus; type: cell-based; conditions: range of concentration, 20-24 hours at 37° C., A595; for MIC: Staphylococcus aureus
# Procedure: (§2) The assays are carried out in 150 μL volume in duplicate in 96-well clear flat-bottom plates. The bacterial suspension from an overnight culture growth in appropriate medium is added to a solution of test compound in 2.5% DMSO in water. Final bacterial inoculum is approximately 10^2-10^3 CFU/well. The percentage growth of the bacteria in test wells relative to that observed for a control wells containing no compound is determined by measuring absorbance at 595 nm (A595) after 20-24 hours at 37° C. The MIC is determined as a range of concentration where complete inhibition of growth is observed at the higher concentration and bacterial cells are viable at the lower concentration. Both ampicillin and tetracycline are used as antibiotic positive controls in each screening assay.
# E. Coli. = test: Minimum inhibitory concentration (MIC), E. coli; type: cell-based; conditions: range of concentration, 20-24 hours at 37° C., A595; for MIC: Escherichia coli
# Procedure: as §2
# 16S = test: Measurement of 16S Kd by FTICR mass spectrometry; type: binding
# Procedure: as §1
Compound,# Dead mice/Total mice in group ([1]; 0.5 mg/kg),# Dead mice/Total mice in group ([1]; 1 mg/kg),# Dead mice/Total mice in group ([1]; 2 mg/kg),Kd (18S),IC50 [2],MIC S. Aureus (S. Aureus),MIC E. Coli. (E. Coli.),Kd (16S),also measured
NCC[C@H](O)C(=O)N[C@@H]1C[C@H](N)[C@@H](O[C@H]2O[C@H](CN)[C@@H](O)[C@H](O)[C@H]2O)[C@H](O)[C@H]1O[C@H]1O[C@H](CO)[C@@H](O)[C@H](N)[C@H]1O [Amikacin],8/10 (10% Mucin),10/10 (10% Mucin),8/10 (10% Mucin),–,–,–,–,–,–
CNC[C@H]1O[C@H](O[C@H]2[C@H](O[C@@H]3O[C@H](CO)[C@@H](O[C@H]4O[C@@H](CN)[C@@H](O)[C@H](O)[C@H]4N)[C@H]3O)[C@@H](O)[C@H](N)C[C@@H]2N)[C@H](N)[C@@H](O)[C@@H]1O [IBIS00560186],–,–,–,1.16 µM,0.159 µM,2 to 3 µM,2 to 3 µM,0.362 µM,–
NC[C@@H]1O[C@H](O[C@H]2[C@@H](O)[C@H](O[C@@H]3[C@@H](O)[C@H](N)C[C@H](N)[C@H]3O[C@H]3O[C@H](CNN)[C@@H](O)[C@H](O)[C@H]3N)O[C@@H]2CO)[C@H](N)[C@@H](O)[C@@H]1O [IBIS00560187],–,–,–,1.66 µM,0.235 µM,3 to 6 µM,12 to 25 µM,0.564 µM,–
CC(C)(C)OC(=O)NNC[C@H]1O[C@H](O[C@H]2[C@H](O[C@@H]3O[C@H](CO)[C@@H](O[C@H]4O[C@@H](CN)[C@@H](O)[C@H](O)[C@H]4N)[C@H]3O)[C@@H](O)[C@H](N)C[C@@H]2N)[C@H](N)[C@@H](O)[C@@H]1O [IBIS00561082],–,–,–,1.35 µM,0.308 µM,12 to 25 µM,6 to 12 µM,0.0149 µM,–
CC(C)NC[C@H]1O[C@H](O[C@H]2[C@H](O[C@@H]3O[C@H](CO)[C@@H](O[C@H]4O[C@@H](CN)[C@@H](O)[C@H](O)[C@H]4N)[C@H]3O)[C@@H](O)[C@H](N)C[C@@H]2N)[C@H](N)[C@@H](O)[C@@H]1O [IBIS00561095],–,–,–,1.21 µM,0.202 µM,1.25 to 2.5 µM,2.5 to 5.0 µM,1.18 µM,–
NCCCNC[C@H]1O[C@H](O[C@H]2[C@H](O[C@@H]3O[C@H](CO)[C@@H](O[C@H]4O[C@@H](CN)[C@@H](O)[C@H](O)[C@H]4N)[C@H]3O)[C@@H](O)[C@H](N)C[C@@H]2N)[C@H](N)[C@@H](O)[C@@H]1O [IBIS00561096],–,–,–,1.45 µM,0.175 µM,1.25 to 2.5 µM,2.5 to 5.0 µM,1.59 µM,–
NCCCCNC[C@H]1O[C@H](O[C@H]2[C@H](O[C@@H]3O[C@H](CO)[C@@H](O[C@H]4O[C@@H](CN)[C@@H](O)[C@H](O)[C@H]4N)[C@H]3O)[C@@H](O)[C@H](N)C[C@@H]2N)[C@H](N)[C@@H](O)[C@@H]1O [IBIS00561140],–,–,–,6.02 µM,0.032 µM,–,–,6.27 µM,MIC (S. Aureus): 10 to 20 µM; MIC (E. Coli.): 2.5 to 5 µM
NCC1OC(OC2C(CO)OC(OC3C(O)C(N)CC(N)C3OC3OC(CNCCc4ccccc4)C(O)C(O)C3N)C2O)C(N)C(O)C1O (stereo not drawn) [IBIS00561141],7/10 (10% Mucin).,0/10 (10% Mucin),0/10 (10% Mucin),2.16 µM,0.2 µM,0.3125 to 0.625 µM,1.25 to 2.5 µM,0.496 µM,# Dead mice/Total mice in group ([1]; 4.5 mg/kg): 0/10 (10% Mucin); # Dead mice/Total mice in group ([1]; 9 mg/kg): 0/10 (10% Mucin); # Dead mice/Total mice in group ([1]; 18 mg/kg): 0/10 (10% Mucin); # Dead mice/Total mice in group ([1]; 37 mg/kg): 0/10 (10% Mucin); # Dead mice/Total mice in group ([1]; 75 mg/kg): 0/10 (10% Mucin)
NC[C@@H]1O[C@H](O[C@H]2[C@@H](O)[C@H](O[C@@H]3[C@@H](O)[C@H](N)C[C@H](N)[C@H]3O[C@H]3O[C@H](CN4CCOCC4)[C@@H](O)[C@H](O)[C@H]3N)O[C@@H]2CO)[C@H](N)[C@@H](O)[C@@H]1O [IBIS00561142],–,–,–,3 µM,0.349 µM,–,–,3.64 µM,MIC (S. Aureus): 10 to 20 µM; MIC (E. Coli.): 20 to 40 µM
NC[C@@H]1O[C@H](O[C@H]2[C@@H](O)[C@H](O[C@@H]3[C@@H](O)[C@H](N)C[C@H](N)[C@H]3O[C@H]3O[C@H](CO)[C@@H](O)[C@H](O)[C@H]3N)O[C@@H]2CO)[C@H](N)[C@@H](O)[C@@H]1O [Paromomycin],10/10 (10% Mucin),10/10 (10% Mucin),9/10 (10% Mucin),–,–,–,–,–,–
Neomycin,7/10 (10% Mucin),10/10 (10% Mucin),4/10 (10% Mucin),–,–,–,–,–,–
